Measured values from patent US20110130365A1, “Fluorinated Heteroaryls” (priority 2008, published 2011).

Molecular target: T1, Full-length glucokinase (beta cell isoform) (Homo sapiens, UniProt P35557)
T1 construct: Full-length glucokinase (beta cell isoform) was His-tagged at N-terminus; His tag (N); made in house
T1 sequence (P35557 1-465): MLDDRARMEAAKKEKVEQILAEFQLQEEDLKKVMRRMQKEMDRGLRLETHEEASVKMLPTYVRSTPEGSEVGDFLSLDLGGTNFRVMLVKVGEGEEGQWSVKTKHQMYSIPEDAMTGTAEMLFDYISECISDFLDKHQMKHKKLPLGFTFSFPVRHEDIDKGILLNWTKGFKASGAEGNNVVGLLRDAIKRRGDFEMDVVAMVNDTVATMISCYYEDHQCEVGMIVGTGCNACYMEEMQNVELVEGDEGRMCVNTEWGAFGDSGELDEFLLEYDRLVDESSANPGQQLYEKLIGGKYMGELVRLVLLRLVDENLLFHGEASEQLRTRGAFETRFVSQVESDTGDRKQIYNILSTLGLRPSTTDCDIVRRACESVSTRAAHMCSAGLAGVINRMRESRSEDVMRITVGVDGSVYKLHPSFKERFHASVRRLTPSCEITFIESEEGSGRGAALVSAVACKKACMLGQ
Test: Glucokinase activation assay (PK/LDH-coupled, NADH depletion at 340 nm)
Assay type: biochemical
Settings: 5 mM glucose, 2.5 mM ATP, pH 7.1, room temperature, values given as a range where N>1; for Emax: fitted % max activation, read-out: Maximum Activation
Description: Full-length glucokinase (beta cell isoform) was His-tagged at N-terminus and purified by a Ni column followed by size exclusion chromatography. A 320 mL column was packed in house using Pharmacia Superdex75 preparation grade resin. Glucose was obtained from Calbiochem (San Diego, Calif.) and other reagents were purchased from Sigma (St. Louis, Mo.).
All assays were performed in a Corning 384-well plate using Spectramax PLUS spectrophotometer (Molecular Devices, Sunnyvale, Calif.) at room temperature. The final assay volume was 40 μL. The buffer conditions used in this assay were as follows: 50 mM HEPES, 5 mM glucose, 2.5 mM ATP, 3.5 mM MgCl2, 0.7 mM NADH, 2 mM dithiothreitol, 1 Unit/mL PK/LDH, 0.2 mM phosphoenolpyruvate, and 25 mM KCl. The buffer pH was 7.1. The test compound in DMSO solution was added to the buffer and mixed by a plate shaker for 7.5 minutes. The final concentration of DMSO introduced into the assay was 0.25%.
Glucokinase was added to the buffer mixture to initiate the reaction in the presence and absence of compound. The reaction was monitored by absorbance at 340 nm due to the depletion of NADH. The initial reaction velocity was measured by the slope of a linear time course of 0-300 seconds. The percentage of activation was calculated by the following equation:
% Activation=(Va/Vo−1)×100;
wherein each of Va and Vo is defined as the initial reaction velocity in the presence and absence of the tested compound, respectively.
To determine the EC50 (half maximal effective concentration) and % maximum activation, compounds were serially diluted in DMSO by 3-fold. The GK activities were measured as a function of compound concentrations. The data were fitted to the equation below to obtain the EC50 and % max activation values:
Va/Vo=1+(% max activation/100)/(1+EC50/compound concentration)

Q: `Cc1cnc(NC(=O)[C@H](CC2CCCC2)n2ccc(C(F)(F)F)cc2=O)cn1` [Example 1, (S)-3-cyclopentyl-N-(5-methylpyrazin-2-yl)-2-(2-oxo-4-(trifluoromethyl)pyridin-1(2H)-yl)propanamide] was tested. Which Emax did it give?
A: Its Emax is 76 to 100%.

Q: And the EC50?
A: The EC50 was 5000 to 10500 nM.

Q: What does the source list for `Cc1ccc(NC(=O)[C@H](CC2CCCC2)n2cccc(C(F)(F)F)c2=O)nc1` [Example 2, (S)-3-cyclopentyl-N-(5-methylpyridin-2-yl)-2-(2-oxo-3-(trifluoromethyl)pyridin-1(2H)-yl)propanamide]?
A: Emax: 0%; EC50: > 100000 nM

Q: Which results are given for `Cc1ccc(NC(=O)[C@H](CC2CCCC2)n2ccc(C(F)(F)F)cc2=O)nc1` [Example 3, (S)-3-cyclopentyl-N-(5-methylpyridin-2-yl)-2-(2-oxo-4-(trifluoromethyl)pyridin-1(2H)-yl)propanamide]?
A: Emax: 55 to 79%; EC50: 1000 to 2500 nM

Q: `Cn1ccc(NC(=O)[C@H](CC2CCCC2)n2ccc(C(F)(F)F)cc2=O)n1` [Example 4, (S)-3-cyclopentyl-N-(1-methyl-1H-pyrazol-3-yl)-2-(2-oxo-4-(trifluoromethyl)pyridin-1(2H)-yl)propanamide] was tested. Which Emax did it give?
A: The Emax was 72 to 106%.

Q: What about the EC50 of the same compound?
A: The EC50 was 4600 to 22400 nM.

Q: Which results are given for `Cc1cnc(NC(=O)[C@H](CC2CCCC2)n2cccc(C(F)(F)F)c2=O)cn1` [Example 5, (S)-3-cyclopentyl-N-(5-methylpyrazin-2-yl)-2-(2-oxo-3-(trifluoromethyl)pyridin-1(2H)-yl)propanamide]?
A: Emax: 0%; EC50: > 100000 nM

Q: Which results are given for `Cc1ccc(NC(=O)[C@H](CC2CCCC2)n2cc(C(F)(F)F)ccc2=O)nc1` [Example 6, (S)-3-cyclopentyl-N-(5-methylpyridin-2-yl)-2-(2-oxo-5-(trifluoromethyl)pyridin-1(2H)-yl)propanamide]?
A: Emax: 88 to 105%; EC50: 200 to 800 nM

Q: How did the Emax turn out when `Cc1cnc(NC(=O)[C@H](CC2CCCC2)n2cc(C(F)(F)F)ccc2=O)cn1` [Example 7, (S)-3-cyclopentyl-N-(5-methylpyrazin-2-yl)-2-(2-oxo-5-(trifluoromethyl)pyridin-1(2H)-yl)propanamide] was run?
A: The Emax was 118 to 152%.

Q: What about the EC50 of the same compound?
A: Its EC50 is 1600 to 3700 nM.

Q: What does the source list for `O=C(Nc1cnccn1)[C@H](CC1CCCC1)n1cc(C(F)(F)F)ccc1=O` [Example 8, (S)-3-cyclopentyl-2-(2-oxo-5-(trifluoromethyl)pyridin-1(2H)-yl)-N-(pyrazin-2-yl)propanamide]?
A: Emax: 110 to 128%; EC50: 1700 to 3200 nM

Q: How did the Emax turn out when `O=C(Nc1ccncn1)[C@H](CC1CCCC1)n1cc(C(F)(F)F)ccc1=O` [Example 9, (S)-3-cyclopentyl-2-(2-oxo-5-(trifluoromethyl)pyridin-1(2H)-yl)-N-(pyrimidin-4-yl)propanamide] was run?
A: The Emax was 95 to 106%.

Q: What about the EC50 of the same compound?
A: Its EC50 is 1100 to 1400 nM.

Q: For `CCn1ccc(NC(=O)[C@H](CC2CCCC2)n2cc(C(F)(F)F)ccc2=O)n1` [Example 10, (S)-3-cyclopentyl-N-(1-ethyl-1H-pyrazol-3-yl)-2-(2-oxo-5-(trifluoromethyl)pyridin-1(2H)-yl)propanamide], which Emax is on record?
A: Its Emax is 121 to 148%.

Q: And the EC50?
A: The EC50 was 1500 to 2100 nM.

Q: `O=C(Nc1ccn(Cc2ccccc2)n1)[C@H](CC1CCCC1)n1cc(C(F)(F)F)ccc1=O` [Example 11, (S)—N-(1-benzyl-1H-pyrazol-3-yl)-3-cyclopentyl-2-(2-oxo-5-(trifluoromethyl)pyridin-1(2H)-yl)propanamide] was tested. Which Emax did it give?
A: The Emax was 108 to 141%.

Q: And the EC50?
A: The EC50 was 700 to 1300 nM.

Q: `O=C(Nc1ncccn1)[C@H](CC1CCCC1)n1cc(C(F)(F)F)ccc1=O` [Example 12, (S)-3-cyclopentyl-2-(2-oxo-5-(trifluoromethyl)pyridin-1(2H)-yl)-N-(pyrimidin-2-yl)propanamide] was tested. Which Emax did it give?
A: The Emax was 109 to 110%.

Q: What about the EC50 of the same compound?
A: Its EC50 is 13600 to 20800 nM.

Q: Which Emax does the source give for `O=C(Nc1cnccn1)[C@H](CC1CCCC1)n1ccc(C(F)(F)F)cc1=O` [Example 13, (S)-3-cyclopentyl-2-(2-oxo-4-(trifluoromethyl)pyridin-1(2H)-yl)-N-(pyrazin-2-yl)propanamide] here?
A: The Emax was 106%.

Q: And the EC50?
A: The EC50 was 14000 nM.

Q: `O=C(Nc1ccncn1)[C@H](CC1CCCC1)n1ccc(C(F)(F)F)cc1=O` [Example 14, (S)-3-cyclopentyl-2-(2-oxo-4-(trifluoromethyl)pyridin-1(2H)-yl)-N-(pyrimidin-4-yl)propanamide] was tested. Which Emax did it give?
A: Its Emax is 58%.

Q: What about the EC50 of the same compound?
A: Its EC50 is 5800 nM.

Q: With `CCn1ccc(NC(=O)[C@H](CC2CCCC2)n2ccc(C(F)(F)F)cc2=O)n1` [Example 15, (S)-3-cyclopentyl-N-(1-ethyl-1H-pyrazol-3-yl)-2-(2-oxo-4-(trifluoromethyl)pyridin-1(2H)-yl)propanamide] as the compound, how does the Emax read?
A: The Emax was 92%.

Q: And the EC50?
A: Its EC50 is 9400 nM.

Q: How did the Emax turn out when `Cn1ccc(NC(=O)[C@H](CC2CCCC2)n2cc(C(F)(F)F)ccc2=O)n1` [Example 16, (S)-3-cyclopentyl-N-(1-methyl-1H-pyrazol-3-yl)-2-(2-oxo-5-(trifluoromethyl)pyridin-1(2H)-yl)propanamide] was run?
A: Its Emax is 125%.

Q: And the EC50?
A: The EC50 was 2500 nM.

Q: How did the Emax turn out when `O=C(Nc1ccc(C(F)(F)F)cn1)[C@H](CC1CCCC1)n1cc(C(F)(F)F)ccc1=O` [Example 17, (S)-3-cyclopentyl-2-(2-oxo-5-(trifluoromethyl)pyridin-1(2H)-yl)-N-(5-(trifluoromethyl)pyridin-2-yl)propanamide] was run?
A: Its Emax is 57%.

Q: And the EC50?
A: The EC50 was 400 nM.

Q: Which Emax does the source give for `O=C(Nc1ccon1)[C@H](CC1CCCC1)n1cc(C(F)(F)F)ccc1=O` [Example 18, (S)-3-cyclopentyl-N-(isoxazol-3-yl)-2-(2-oxo-5-(trifluoromethyl)pyridin-1(2H)-yl)propanamide] here?
A: The Emax was 103%.

Q: What about the EC50 of the same compound?
A: The EC50 was 9300 nM.

Q: For `O=C(Nc1ccc2ccccc2n1)[C@H](CC1CCCC1)n1cc(C(F)(F)F)ccc1=O` [Example 19, (S)-3-cyclopentyl-2-(2-oxo-5-(trifluoromethyl)pyridin-1(2H)-yl)-N-(quinolin-2-yl)propanamide], which Emax is on record?
A: Its Emax is 89%.

Q: What about the EC50 of the same compound?
A: Its EC50 is 500 nM.

Q: For `COc1cnc(NC(=O)[C@H](CC2CCCC2)n2cc(C(F)(F)F)ccc2=O)cn1` [Example 20, (S)-3-cyclopentyl-N-(5-methoxypyrazin-2-yl)-2-(2-oxo-5-(trifluoromethyl)pyridin-1(2H)-yl)propanamide], which Emax is on record?
A: Its Emax is 114%.

Q: What about the EC50 of the same compound?
A: The EC50 was 1200 nM.

Q: With `O=C(Nc1ccccn1)[C@H](CC1CCCC1)n1cc(C(F)(F)F)ccc1=O` [Example 21, (S)-3-cyclopentyl-2-(2-oxo-5-(trifluoromethyl)pyridin-1(2H)-yl)-N-(pyridin-2-yl)propanamide] as the compound, how does the Emax read?
A: The Emax was 113%.

Q: What about the EC50 of the same compound?
A: Its EC50 is 300 nM.

Q: How did the Emax turn out when `Cc1cnc(NC(=O)[C@H](CC2CCCC2)n2cnc(C(F)(F)F)cc2=O)cn1` [Example 22, (S)-3-cyclopentyl-N-(5-methylpyrazin-2-yl)-2-(6-oxo-4-(trifluoromethyl)pyrimidin-1(6H)-yl)propanamide] was run?
A: Its Emax is 130%.

Q: And the EC50?
A: The EC50 was 20200 nM.

Q: `Cc1ccc(NC(=O)[C@H](CC2CCCC2)n2cnc(C(F)(F)F)cc2=O)nc1` [Example 23, (S)-3-cyclopentyl-N-(5-methylpyridin-2-yl)-2-(6-oxo-4-(trifluoromethyl)pyrimidin-1(6H)-yl)propanamide] was tested. Which Emax did it give?
A: The Emax was 77%.

Q: And the EC50?
A: The EC50 was 2600 nM.

Q: With `Cn1ccc(NC(=O)[C@H](CC2CCCC2)n2cnc(C(F)(F)F)cc2=O)n1` [Example 24, (S)-3-cyclopentyl-N-(1-methyl-1H-pyrazol-3-yl)-2-(6-oxo-4-(trifluoromethyl)pyrimidin-1(6H)-yl)propanamide] as the compound, how does the Emax read?
A: Its Emax is 106%.

Q: What about the EC50 of the same compound?
A: The EC50 was 27100 nM.
